Results as given in publication PMC12040169 (PLOS Biology, 2025).

Test: in vitro
Settings: human, hela cells, % viability

SMILES	viability at 28.5 h, 10 µM [%]	viability at 28.5 h, 10 µM (bulk resorufin, single well) [%]
Cc1ccc(S(=O)(=O)N(CC(=O)Nc2cccnc2)c2cccc([N+](=O)[O-])c2)cc1 [CBK266404]	86	
O=C(O)C[S+]([O-])c1ccccc1C(=O)O (centres unmarked) [CBK263244]	96.3	
CN1C(=O)C(=CNCCCC(=O)O)C(=O)N(C)C1=O [CBK264420]		90.4
O=C1c2ccccc2C(=O)N1CCc1nnn[nH]1 [CBK007829]	111	
Cn1c(-c2nonc2N)nc2ccccc21 [CBK062642]	94.5	
COc1ccc(NC(=O)N[C@H]2[C@H](O)[C@@H](N3CCOCC3)[C@@H]3OC[C@H]2O3)cc1 [CBK288820]	101	
COc1cccc2cc(C(=O)NCc3ccc(NS(C)(=O)=O)cc3)oc12 [CBK161479]	70.8	
CCC(=O)N1CCCc2cc(C(O)CN3CCN(c4cccc(OC)c4)CC3)ccc21 (centres unmarked) [CBK286476]	114	
CSc1ncc(Cl)c(C(=O)Nc2nnc(SC/C=C/c3ccccc3)s2)n1 [CBK268691]	93.5	
O=C(Nc1ccc(F)cc1Cl)c1cnc2n(c1=O)CCS2 [CBK287382]	104	
CCCC/C=C/c1cnc2[nH]c(=O)n(CCc3cccnc3)c2n1 [CBK064496]	92.7	
Cc1sc(-c2cccs2)nc1OC(=O)c1cccc(C(F)(F)F)c1 [CBK067748]	96.1	
CC(C)c1nc2c(c(=O)c3ccccc3n2C)c(=O)n1-c1ccccc1 [CBK287947]	97.6	
COc1ccc(CN2CCCc3c(C)nc(C4CCCN(C(=O)C5CCC5)C4)nc32)cc1 (centres unmarked) [CBK286117]	95.1	
CCOC(=O)C1(c2ccccc2)CCN(C(=O)c2ccc3ncccc3c2)CC1 [CBK132206]		107
Cn1nccc1C(=O)N1CCN(c2ncccn2)CC1 [CBK288240]	90.7	
COCCN1CC[C@@H]2[C@@H](C/C=C/Cc3ccccc3OCC(=O)N2C)C1 [CBK292134]	98	
O=Cc1ccc(-c2nccnc2NS(=O)(=O)c2ccccc2)cc1 [CBK073845]	97.3	
Nc1ccc(-c2cncc(N3CCN(c4ccncc4)CC3)n2)cc1 [CBK065681]	97	
CCCN(CCC)C(=O)c1nc(C)c(C(=O)N(CCC)CCC)nc1C [CBK023232]	89.2	
COCC1CCCN1C(=O)c1cnn2c(C)c(Cc3ccc(OC)cc3)c(C)nc12 (centres unmarked) [CBK162190]	107	
Cc1ccc2nc(SCCC(=O)O)cc(C)c2c1 [CBK286861]	90.1	
Cc1c(C(=O)C2=C(O)C(=O)N(CCCN(C)C)C2c2cccnc2)cnn1-c1ccccc1 (centres unmarked) [CBK269312]	93.8	
Cc1cc(C)n(CC(=O)NCCCc2ccc(Cl)cc2)c(=O)n1 [CBK281561]	96.3	
CS(=O)(=O)N(CC(=O)N/N=C/c1ccncc1)c1ccccc1Br [CBK263911]	100	
Cc1cnc2c(Cl)c(C(=O)NCC3(CN4CCOCC4)CC3)nn2c1 [CBK306918]	98.8	
CCc1nc2c(OCc3ccccc3OC)cccn2c1N(C)C(=O)C(C)C [CBK147763]	97	

SMILES	viability at 28.5 h, 10 µM [%]	viability at 28.5 h, 10 µM (bulk resorufin, single well) [%]
CC(C)(C)OC(=O)N1CCC(c2nc(-c3cccnc3)no2)CC1 [CBK304332]	84.6	
CC(C)(C)N=C1c2nn(Cc3ccccc3)nc2C(=NC(C)(C)C)c2nn(Cc3ccccc3)nc21 [CBK261070]	103	
Nc1ncc(-c2cccc(C(=O)O)c2)nc1-c1ccc(O)cc1 [CBK200420]	107	
Cc1cccc(N2C(=O)NC(=O)C(CCc3ccncc3)(CCc3ccncc3)C2=O)c1 [CBK264898]		96.3
Cc1[nH]c(=O)[nH]c(=O)c1Cc1cccc2ccccc12 [CBK111494]	92.8	
NC(=O)COc1ccc(CNC(=O)CN2CCCCCC2)cc1 [CBK306332]	87.6	
CC1(C)CC(N(Cc2ccccc2)Cc2c[nH]cn2)CC(C)(C)N1 [CBK283196]	103	
COc1cc(C)c(Nc2cccc(/C=C/c3ccccc3)n2)cc1OC [CBK037725]	102	
Cc1ccccc1COc1cccc2c1CCCC2 [CBK002562]	98.2	
N#Cc1ccc(NCC(=O)Nc2ncccc2O)cc1 [CBK306413]	88.7	
Cc1ccc2nc(C)c(CCC(=O)O)c(O)c2c1 [CBK262946]	91.8	
COc1ccc(C2NCCS2)cc1Br (centres unmarked) [CBK021053]	104	
O=C(Nc1cccc(C(F)(F)F)c1)c1ccc(N2CCNCC2)c([N+](=O)[O-])c1 [CBK266274]	100	
Cn1c(=O)n(C)c2cc(-c3nc4ccccc4c(=O)[nH]3)ccc21 [CBK287887]	98.5	
COc1ccc(C2(C(=O)NCCCN3CCN(C)CC3)CC2)cc1 [CBK149822]	101	
c1cncc(COc2nccnc2N2CCCC2)c1 [CBK115890]	101	
CSc1nc2ccc(Nc3cc(C)nc4ncnn34)cc2s1 [CBK297724]	105	
C(=C\CSC1=NCCN1)/CSC1=NCCN1 [CBK264266]	107	
Clc1ccc(COc2nccnc2OCc2cccnc2)cc1Cl [CBK161597]	85	
CCn1c2c(c(=O)[nH]c1=O)C(c1ccccc1)C1=C(COC1=O)N2 (centres unmarked) [CBK287704]	95.6	
CC(=O)Nc1ccc(-c2cncc(Nc3ccc(F)c(Cl)c3)n2)cc1 [CBK065765]	96.1	
CCCc1cc(C(N)=O)cc(CCC)c1OCC [CBK015537]	98	
Cc1ccn2cc(C(=O)NCCSc3nccn3C)nc2c1 [CBK281417]	104	
CC(C)CN(CC(C)C)C(=O)Cn1cc([N+](=O)[O-])cc(C(N)=O)c1=O [CBK297784]	83.9	
Cc1ccc2c(c1)nc(CNC(=O)NC1CCCc3cn[nH]c31)n2C (centres unmarked) [CBK305554]	77.5	
CCOc1cc(C=C2C(=O)NC(=S)NC2=O)cc(Br)c1OCC(=O)O [CBK265411]		98.4
CN1CCN(c2ccc(-c3cnc4[nH]c(=O)n(C5CC5)c4n3)cc2)CC1 [CBK064899]	89.7	

SMILES	viability at 28.5 h, 10 µM [%]	viability at 28.5 h, 10 µM (bulk resorufin, single well) [%]
CN(C)S(=O)(=O)c1ccc(C(=O)C2=C(O)C(=O)N(CCN3CCOCC3)C2c2ccccc2)cc1 (centres unmarked) [CBK264540]	111	
CCOC(=O)N1CCC(NC(=O)N(C)C2CCN(C)C2)CC1 (centres unmarked) [CBK156027]	102	
c1ccc(-c2ccc(OCCCCN3CCNCC3)cc2)cc1 [CBK266028G]	95.8	
O=C(O)c1ccc(NC(=O)C2CCN(S(=O)(=O)c3ccccc3)CC2)cc1 [CBK265181]	110	
CCN(CC)CC(O)Cn1c(-c2ccccc2Cl)nc2ccccc21 (centres unmarked) [CBK262495]	96.3	
O=C(c1n[nH]c2c1CCCC2)N1CCc2ncc(Cl)cc2C1 [CBK284975]	93.4	
CCc1nc2ccc(C(=O)N3CCN(C(C)=O)CC3)cn2c1N(C)Cc1ccc(Cl)cc1 [CBK146718]	105	
O=C(Cn1nnc(-c2ccc3c(c2)OCO3)n1)Nc1ccccc1C(=O)O [CBK268025]	101	
CC(=O)N1CCc2cc(NC(=O)Cn3ccnc3C(C)C)ccc21 [CBK281471]	90.1	
CC(=O)Nc1nnc(SCC(=O)N2CCN(c3ccc(Cl)cc3)CC2)s1 [CBK307384]	86.6	
CC1=C(C(=O)OCc2ccccc2)C2(C(=O)Nc3ccccc32)C(C(=O)OCc2ccccc2)=C(N)O1 (centres unmarked) [CBK262576]	89.6	
C[C@@H](Cn1nc(-c2cccs2)oc1=O)NC(=O)C1CCCC1 [CBK284337]	86.5	
O=C(CSc1nc(Nc2ccccc2)nc(N2CCOCC2)n1)Nc1ccc2c(c1)OCO2 [CBK268320]	96.5	
c1ccc(-c2nccnc2OCCc2cccs2)cc1 [CBK106673]	103	
Cc1n[nH]c(C)c1CCCCCOc1ccccc1F [CBK025736C]	88.9	
Cc1ccc(CN2C(=O)CSC2c2cn(-c3ccccc3)nc2-c2ccccc2)cc1 (centres unmarked) [CBK263678]	94.5	
O=c1ccc2ccc(-c3ccsc3)nc2[nH]1 [CBK073710]	97	
O=C(c1n[nH]cc1Cl)N1CCCC(c2cc3ccccc3cn2)C1 (centres unmarked) [CBK285062]	88	
CC(=O)C1=C(O)C(=O)N(CCN2CCNCC2)C1c1cccc([N+](=O)[O-])c1 (centres unmarked) [CBK263320]	101	
O=C(Nc1cccc(S(=O)(=O)N2CCCC2)c1)c1nc[nH]n1 [CBK268353]	103	
CC(C)[C@H](CO)Nc1cncc(-c2cccc(N(C)C)c2)n1 [CBK065547]	81.9	
Cn1c(Sc2ccc(C#N)cn2)nnc1-c1ccco1 [CBK297756]	111	
Cc1nn(CCC#N)c(C)c1CCC(=O)NCc1ccccn1 [CBK305693]	82.5	
O=C1CCC(=O)N1CC(O)Cn1c2ccc(Cl)cc2c2cc(Cl)ccc21 (centres unmarked) [CBK262222]	90.5	
Cn1ccnc1C1(O)CCN(C(=O)Nc2ccc(F)cc2)CC1 [CBK282277]	97.4	
CCc1nc2ccc(C(=O)Nc3ccc(OC)c(OC)c3)cn2c1N(C)C(=O)Nc1ccccc1OC [CBK145875]	117	
